From PMC9585585, “Discovery of Small-Molecule Allosteric Inhibitors of PfATC as Antimalarials” (Journal of the American Chemical Society, 2022)
Values joined by “and” are separate entries in the source; they are usually repeats but may differ in a detail not shown here. Equal values may be shown once. Read-outs that look alike come from different tables or passages of the source.

Experiments:
normal lymphocytes = assay: Human cell line experiments, AlamarBlue, normal lymphocytes; format: cell-based; settings: for EC50: Hs normal lymphocytes, 72 hours, read-out: EC50 against normal lymphocytes; for cytotoxicity against cultured human lymphocytes: at 100 μM
Description: page 4: […] 418one in 50% (v/v) sulfuric acid) and one volume of 2,3-Butanedione monoxime (80 mM 2,3- 419Butanedione monoxime in 5% (v/v) acetic acid). After plates were sealed with transparent sealing 420tape to prevent evaporation and incubated overnight in the dark place at room temperature. After 421incubation, the plates were heated at 95 °C for 15 min in dark place, and kept for 30 min before 422measuring at 466 nm suing a Synergy H1 Hybrid Reader (BioTek). Analyses were performed using 423Microsoft Excel and Graph Pad Prism. 424HsATC activity assay. The enzymatic assay was performed as described herein above for 425enzymatic assay of PfATC with minor modifications. Briefly, the reaction was carried out at room 426temperature in a total volume of 150 μl of 10 mM L-aspartate and 5 mM carbamoyl phosphate 427saturated substrate solution in 50 mM Tris-Acetate buffer pH 8.3. hsATC was pre-incubated with 428inhibitor and L-Asp for 10 min at room temperature on a shaker. The reaction was initiated by 429adding CP and stopped after 5 min with […] color mix. Then the plate was covered by sealing 430tape and kept in dark place at room temperature and then heated to 95 °C for 15min in dark and kept 431the plate in the dark for another 30 min before measuring the absorbance at 466 nm suing a Synergy 432H1 Hybrid Reader (BioTek). Analyses were performed using Microsoft Excel and Graph Pad 433Prism. 434Human cell line experiments. The cell lines A375 (melanoma), H1299 (lungca), MCF7 435(breastca), REC-1 (mantel cell lymphoma, SUDHL2 (diffuse large B-cell lymphoma) and normal 436lymphocytes (obtained from tonsils) were cultured in RPMI 1640 (Lonza BioWhittaker, 437Walkersville, MD, USA) with 10% fetal bovine serum (FBS; HyClone Thermo Scientific, 438Waltham, MA, USA). Cells were plated in 96-wells plates and incubated with increasing 439concentrations of compounds for 72 hours as indicated. All experiments were performed in page 5: 440triplicate. AlamarBlue (Thermo Fisher Scientific, Waltham, MA USA) was added eight hours prior 441to read-out (extinction 560nm, emission 590nm). […] A freshly prepared protein 443solution at a concentration of 10 mg ml -1 and immediately used in crystallization trials. The 444screening for crystallization conditions for PfATC was performed using a high-through 445crystallization robot (Gryphon, Art Robbins) against commercially available sparse-matrix 446screening kits (JCSG plus and PACT premier; Molecular Dimensions Ltd.). All experiments were 447performed at 293 K using the sitting drop vapor diffusion technique in 96 well MRC2 plates 448(Molecular Dimensions Ltd.). Equal volumes (0.2 μL) of protein solution and crystallization 449reagent were equilibrated against 50 μL of reservoir solution. Medium size single crystals appeared 450overnight in various conditions containing PEG3350/4000. The apo-crystals were soaked for 10 […] 452the solution plus 20% glycerol, flash-cooled and stored in liquid nitrogen. The flashed cooled 453crystals was shipped to […], Deutsches Elektronen-Synchrotron DESY Beamline P11. […] The purified PfATC […] 457stocks in 100% DMSO) at a molar ratio of 1:5. The mixture was incubated at 20 °C for 40 minutes, 458then centrifugation was performed to remove the precipitate. The supernatant was immediately 459used in crystallization trials. The crystallization reagent were the same as apo crystallization […] The crystals were flash- 461cooled and stored in liquid nitrogen, and was shipped to […], Deutsches Elektronen- 462Synchrotron DESY Beamline P11.

HsATC = biological target: T1, HsATC (Homo sapiens, UniProt P27708); assay: HsATC activity assay; format: biochemical; settings: in vitro activity assay
T1 construct: ATCase domain of CAD; made in house; host or cells: E. coli BL21 star
T1 sequence (P27708 1918-2225 limits assumed): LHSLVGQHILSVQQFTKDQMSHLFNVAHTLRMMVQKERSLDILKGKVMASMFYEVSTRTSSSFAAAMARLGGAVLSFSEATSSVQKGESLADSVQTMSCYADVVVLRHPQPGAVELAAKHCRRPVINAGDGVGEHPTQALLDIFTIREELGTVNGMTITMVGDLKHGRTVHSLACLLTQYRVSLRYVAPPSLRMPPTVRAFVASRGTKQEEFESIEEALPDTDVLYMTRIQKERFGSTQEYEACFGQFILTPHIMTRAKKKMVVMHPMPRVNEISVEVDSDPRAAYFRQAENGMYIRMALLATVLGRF
Description: 417100μL of stop mix (two volumes of Antipyrine (26.5 mM 2,3-Dimethyl-1-phenyl-3-pyrazolin-5-
418one in 50% (v/v) sulfuric acid) and one volume of 2,3-Butanedione monoxime (80 mM 2,3-
419Butanedione monoxime in 5% (v/v) acetic acid). After plates were sealed with transparent sealing
(§1) 420tape to prevent evaporation and incubated overnight in the dark place at room temperature. After
421incubation, the plates were heated at 95 °C for 15 min in dark place, and kept for 30 min before
422measuring at 466 nm suing a Synergy H1 Hybrid Reader (BioTek). Analyses were performed using
423Microsoft Excel and Graph Pad Prism.
424HsATC activity assay. The enzymatic assay was performed as described herein above for
425enzymatic assay of PfATC with minor modifications. Briefly, the reaction was carried out at room
426temperature in a total volume of 150 μl of 10 mM L-aspartate and 5 mM carbamoyl phosphate
427saturated substrate solution in 50 mM Tris-Acetate buffer pH 8.3. hsATC was pre-incubated with
428inhibitor and L-Asp for 10 min at room temperature on a shaker. The reaction was initiated by
429adding CP and stopped after 5 min with […] color mix. Then the plate was covered by sealing
(§2) 430tape and kept in dark place at room temperature and then heated to 95 °C for 15min in dark and kept
431the plate in the dark for another 30 min before measuring the absorbance at 466 nm suing a Synergy
432H1 Hybrid Reader (BioTek). […]

PfATC = PfATC (Plasmodium falciparum, UniProt A0A5K1K910); assay: biochemical; settings: for IC50: in vitro activity assay, PfATC 50 nM, 2 mM CP, 1 mM aspartate, read-out: PfATC IC50
Description: Following washing with Lysis buffer
Excess imidazole was removed and the His-tag was cleaved
400Then, the sample was loaded onto a 5 ml HiTrap SP HP column (GE Healthcare, USA) and
410PfATC activity assay. Enzymatic reactions were performed in a total volume of 150 µL in 50 mM
Small-molecule dose-response curves were
The reactions were initiated by adding CP and quenched after 10 min with
After plates were sealed with transparent sealing
as §1
Analyses were performed using
The enzymatic assay was performed as described herein above for
Briefly, the reaction was carried out at room
The reaction was initiated by
Then the plate was covered by sealing
as §2

[1] = 10 mM L-aspartate, 5 mM carbamoyl phosphate, read-out: HsATC IC50

Chain of PfATC (A0A5K1K910 entry or part of it): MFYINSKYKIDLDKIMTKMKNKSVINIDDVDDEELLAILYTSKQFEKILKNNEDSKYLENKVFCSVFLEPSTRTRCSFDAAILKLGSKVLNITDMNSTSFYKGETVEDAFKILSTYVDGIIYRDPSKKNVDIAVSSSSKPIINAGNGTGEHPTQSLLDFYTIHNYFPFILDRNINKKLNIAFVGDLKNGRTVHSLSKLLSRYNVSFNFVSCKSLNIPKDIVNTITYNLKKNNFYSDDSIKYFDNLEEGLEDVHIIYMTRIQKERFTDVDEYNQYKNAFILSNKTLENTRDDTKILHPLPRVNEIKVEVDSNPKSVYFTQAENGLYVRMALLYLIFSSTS

IC50 (HsATC; [1]) | IC50 (PfATC) | IC50 (HsATC; n = 3, read-out: IC50 against HsATC) | mechanism of inhibition (PfATC; with CP and Asp, 0, 200 and 400 nM BDA-04, one substrate fixed (2 mM CP or 1 mM Asp)) | Structure (SMILES) | EC50 (normal lymphocytes) | cytotoxicity against cultured human lymphocytes (normal lymphocytes) | EC50 (normal lymphocytes; Homo sapiens, Lymphocyte)
0.116 µM | 0.0456 µM and 0.046 µM and 0.0457 µM |  |  | CC(C)(C)OC(=O)Nc1sc(-c2ccccc2)cc1C(=O)NCCc1ccc(O)cc1 [BDA-11] | 757 µM |  | 
0.316 µM | 0.103 µM |  |  | COc1cccc(CCNC(=O)c2cc(-c3ccccc3)sc2NC(=O)OC(C)(C)C)c1 [BDA-24] | 911 µM |  | 
2.84 µM | 0.0772 µM | 2.8 µM and 2.84 µM | noncompetitive inhibitor | CC(C)(C)OC(=O)Nc1sc(-c2ccccc2)cc1C(=O)NCCc1ccccc1 [BDA-04] |  | no cytotoxicity | ~1000 µM

Structure (SMILES) | IC50 (HsATC; [1]) | IC50 (PfATC) | IC50 (HsATC; n = 3, read-out: IC50 against HsATC) | mechanism of inhibition (PfATC; with CP and Asp, 0, 200 and 400 nM BDA-04, one substrate fixed (2 mM CP or 1 mM Asp)) | EC50 (normal lymphocytes) | cytotoxicity against cultured human lymphocytes (normal lymphocytes) | EC50 (normal lymphocytes; Homo sapiens, Lymphocyte)
CC(C)(C)OC(=O)Nc1sc(-c2ccccc2)cc1C(=O)NCCO [BDA-14] | 0.137 µM | 0.115 µM and 0.114 µM |  |  | > 1000 µM | no cytotoxicity | 
